The results in this text go back to patent US10752587B2, “Homobispiperidinyl derivatives as liver X receptor beta agonists, compositions and their use” (Merck Sharp & Dohme Corp., priority 2015, dated 2020).

The target of assay [1] is T1, glutathione-S-transferase (GST) tagged LXRbeta LBD (ligand binding domain) (Homo sapiens, UniProt P55055).
T1 construct: purchased Invitrogen pv4658.pps
T1 sequence (P55055 222-460 limits assumed): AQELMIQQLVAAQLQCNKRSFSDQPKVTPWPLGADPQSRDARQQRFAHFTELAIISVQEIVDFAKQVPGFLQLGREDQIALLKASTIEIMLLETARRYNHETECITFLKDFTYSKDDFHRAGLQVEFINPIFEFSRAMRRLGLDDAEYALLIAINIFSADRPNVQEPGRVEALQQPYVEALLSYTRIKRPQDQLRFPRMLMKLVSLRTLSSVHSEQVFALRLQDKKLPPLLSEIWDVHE
The experiment in a line: LanthaScreen TR-FRET Liver X Receptor Coactivator Assay, co-activator recruitment to LXRbeta LBD. It is filed as biochemical. The settings on record: for Emax: efficacy at max dose, in relation to reference dual agonist T0901317, read-out: LXR beta Activity @ max dose (%); for EC50: potency (Inflection Point, IP), co-activator recruitment to LXRbeta LBD, in relation to T0901317, read-out: LXR beta IP. In outline:
(§1)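 Compound-induced coactivator recruitment by the GST-fused ligand binding domain, detected as TR-FRET between Tb-labelled anti-GST antibody and fluorescein-tagged coactivator peptide after room-temperature incubation. IP and Emax expressed versus T0901317 as reference agonist.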
A general note: In TR-FRET formats the signal depends on donor and acceptor labels being close together.

Assay [2] has as its target T2, glutathione-S-transferase (GST) tagged LXRalpha LBD (ligand binding domain) (Homo sapiens, UniProt Q13133).
T2 construct: purchased Invitrogen pv4655
T2 sequence (Q13133 209-447 limits assumed): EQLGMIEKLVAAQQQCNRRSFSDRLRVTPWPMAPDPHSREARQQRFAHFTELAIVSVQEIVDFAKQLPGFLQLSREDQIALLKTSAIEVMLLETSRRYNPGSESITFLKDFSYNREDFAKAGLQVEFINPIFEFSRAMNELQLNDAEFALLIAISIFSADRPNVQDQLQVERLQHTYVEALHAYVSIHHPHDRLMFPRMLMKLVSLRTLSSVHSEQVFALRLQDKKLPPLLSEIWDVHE
Description: LanthaScreen TR-FRET Liver X Receptor Coactivator Assay, co-activator recruitment to LXRalpha LBD. The format is biochemical. The settings on record: for Emax: efficacy at max dose, in relation to reference dual agonist T0901317, read-out: LXR alpha Activity @ max dose (%); for EC50 / LXR alpha IP (nM): potency (Inflection Point, IP), co-activator recruitment to LXRalpha LBD, in relation to T0901317; for EC50: read-out: LXR alpha IP. In outline: as §1

Consider `CN(C)C(=O)c1ccc(N2CCC(CC3(C)CCN(C(=O)[C@](O)(c4cc(F)cc(Cl)c4)C(F)(F)F)CC3)CC2)nc1Cl` [Example 7-46, 2-chloro-6-[4-({1-[(2R)-2-(3-chloro-5-fluorophenyl)-3,3,3-trifluoro-2-hydroxypropanoyl]-4-methylpiperidin-4-yl}methyl)piperidin-1-yl]-N,N-dimethylpyridine-3-carboxamide], for which, in assay [1], the Emax was determined as 109% and the EC50 was found to be 2 nM. In addition, in assay [2], the Emax was 46% and the EC50 came to 40 nM.
On the same counts, the results for `CN(C)C(=O)c1ccc(N2CCC(CC3(C)CCN(C(=O)[C@](O)(c4cccc(Cl)c4)C(F)(F)F)CC3)CC2)nc1Cl` [Example 7-47, 2-chloro-6-[4-({1-[(2R)-2-(3-chlorophenyl)-3,3,3-trifluoro-2-hydroxypropanoyl]-4-methylpiperidin-4-yl}methyl)piperidin-1-yl]-N,N-dimethylpyridine-3-carboxamide] are 66%, 3 nM, 22% and 60 nM.
Regarding `CC(C)Oc1cccc([C@@](O)(C(=O)N2CCC(C)(CC3CCN(c4ccc(C(=O)N(C)C)c(Cl)n4)CC3)CC2)C(F)(F)F)c1` [Example 7-48, 2-chloro-N,N-dimethyl-6-{4-[(4-methyl-1-{(2R)-3,3,3-trifluoro-2-hydroxy-2-[3-(1-methylethoxy)phenyl]propanoyl}piperidin-4-yl)methyl]piperidin-1-yl}pyridine-3-carboxamide], in assay [1], the Emax worked out at 64% and the EC50 came out at 10 nM. In addition, in assay [2], the Emax turned out to be 16% and the “LXR alpha IP (nM)” value is on record as “NO IP”.
The matching figures for `CCc1cccc([C@@](O)(C(=O)N2CCC(C)(CC3CCN(c4ccc(C(=O)N(C)C)c(Cl)n4)CC3)CC2)C(F)(F)F)c1` [Example 7-49, 2-chloro-6-[4-({1-[(2R)-2-(3-ethylphenyl)-3,3,3-trifluoro-2-hydroxypropanoyl]-4-methylpiperidin-4-yl}methyl)piperidin-1-yl]-N,N-dimethylpyridine-3-carboxamide]: 40%, 6 nM, 8% and “NO IP”.
The matching figures for `CCOc1cccc([C@@](O)(C(=O)N2CCC(C)(CC3CCN(c4ccc(C(=O)N(C)C)c(Cl)n4)CC3)CC2)C(F)(F)F)c1` [Example 7-50, 2-chloro-6-[4-({1-[(2R)-2-(3-ethoxyphenyl)-3,3,3-trifluoro-2-hydroxypropanoyl]-4-methylpiperidin-4-yl}methyl)piperidin-1-yl]-N,N-dimethylpyridine-3-carboxamide]: 47%, 10 nM, 6% and “NO IP”.
On the same counts, the results for `COc1cccc([C@@](O)(C(=O)N2CCC(C)(CC3CCN(c4ccc(C(=O)N(C)C)c(Cl)n4)CC3)CC2)C(F)(F)F)c1` [Example 7-51, 2-chloro-N,N-dimethyl-6-[4-({4-methyl-1[(2R)-3,3,3-trifluoro-2-hydroxy-2-(3-methoxyphenyl)propanoyl]piperidin-4-yl}methyl)piperidin-1-yl]pyridine-3-carboxamide] are 35%, 5 nM, 4% and “NO IP”.
Consider `COc1cccc([C@@](O)(C(=O)N2CCC(CC3CCN(c4ccc(C(=O)N(C)C)c(Cl)n4)CC3)CC2)C(F)(F)F)c1` [Example 7-52, 2-chloro-N,N-dimethyl-6-[4-({1-[(2R)-3,3,3-trifluoro-2-hydroxy-2-(3-methoxyphenyl)propanoyl]piperidin-4-yl}methyl)piperidin-1-yl]pyridine-3-carboxamide], for which, in assay [1], the Emax was found to be 69% and the EC50 amounted to 5 nM. Moreover, in assay [2], the Emax was found to be 14% and the EC50 amounted to 120 nM.
On the same counts, the results for `CN(C)C(=O)c1ccc(N2CCC(CC3CCN(C(=O)C4(c5ccccc5Cl)CC4)CC3)CC2)nc1Cl` [Example 7-53, 2-chloro-6-{4-[(1-{[1-(2-chlorophenyl)cyclopropyl]carbonyl}piperidin-4-yl)methyl]piperidin-1-yl}-N,N-dimethylpyridine-3-carboxamide] are 118%, 31 nM, 45% and 571 nM.
As for `CN(C)C(=O)c1ccc(N2CCC(CC3CCN(C(=O)C(O)(c4cccc(C(F)(F)F)c4)C(F)(F)F)CC3)CC2)nc1Cl` (centres unmarked) [Example 7-54, 2-chloro-N,N-dimethyl-6-{4-[(1-{3,3,3-trifluoro-2-hydroxy-2-[3-(trifluoromethyl)phenyl]propanoyl}piperidin-4-yl)methyl]piperidin-1-yl}pyridine-3-carboxamide], in assay [1], the Emax was determined as 77% and the EC50 is 10 nM. Further, in assay [2], the Emax turned out to be 21% and the EC50 was determined as 356 nM.
The matching figures for `Cc1cccc(C(O)(C(=O)N2CCC(CC3CCN(c4ccc(C(=O)N(C)C)c(Cl)n4)CC3)CC2)C(F)(F)F)c1` (centres unmarked) [Example 7-55, 2-chloro-N,N-dimethyl-6-[4-({1-[3,3,3-trifluoro-2-hydroxy-2-(3-methylphenyl)propanoyl]piperidin-4-yl}methyl)piperidin-1-yl] pyridine-3-carboxamide]: 59%, 5 nM, 9% and 141 nM.
The matching figures for `Cc1ccccc1C1(C(=O)N2CCC(CC3CCN(c4ccc(C(=O)N(C)C)c(Cl)n4)CC3)CC2)CCC1` [Example 7-56, 2-chloro-N,N-dimethyl-6-{4-[(1-{[1-(2-methylphenyl)cyclobutyl]carbonyl}piperidin-4-yl)methyl]piperidin-1-yl}pyridine-3-carboxamide]: 114%, 20 nM, 37% and 429 nM.
The matching figures for `COc1ccccc1C1(C(=O)N2CCC(CC3CCN(c4ccc(C(=O)N(C)C)c(Cl)n4)CC3)CC2)CCC1` [Example 7-57, 2-chloro-6-{4-[(1-{[1-(2-methoxyphenyl)cyclobutyl]carbonyl}piperidin-4-yl)methyl]piperidin-1-yl}-N,N-dimethylpyridine-3-carboxamide]: 123%, 16 nM, 39% and 438 nM.
With `COc1cccc(C(O)(C(=O)N2CCC(CC3CCN(c4ccc(C(=O)N(C)C)c(Cl)n4)CC3)CC2)C(F)(F)C(F)(F)F)c1` (centres unmarked) [Example 7-58, 2-chloro-N,N-dimethyl-6-[4-({1-[3,3,4,4,4-pentafluoro-2-hydroxy-2-(3-methoxyphenyl)butanoyl]piperidin-4-yl}methyl)piperidin-1-yl]pyridine-3-carboxamide], the Emax came to 80% in assay [1] and 19% in assay [2]. Further, the EC50 in assay [1] was found to be 11 nM; in assay [2], 274 nM.
With `CC(C)C(O)(C(=O)N1CCC(CC2CCN(c3ccc(C(=O)N(C)C)c(Cl)n3)CC2)CC1)C(F)(F)F` (centres unmarked) [Example 7-59, 2-chloro-6-[4-({1-[2-hydroxy-3-methyl-2-(trifluoromethyl)butanoyl]piperidin-4-yl}methyl)piperidin-1-yl]-N,N-dimethylpyridine-3-carboxamide], the Emax in assay [1] was determined as 107%; in assay [2] it was 39%. The EC50 came out at 293 nM in assay [1] and 2680 nM in assay [2].
